Literature values in article PMC11999338, “Factor XI localization in human deep venous thrombus and function of activated factor XI on venous thrombus formation and hemostasis” (Research and Practice in Thrombosis and Haemostasis, 2025).
Read-outs that look alike come from different tables or passages of the source.

Legend:
[1] = patients with atrial fibrillation; asundexian 50 mg, once daily; cited from earlier work
VTE = conditions: cited from earlier work
[2] = test system: inferior vena cava thrombus; design: method as in PMID 21614454; conditions: rabbits, i.v. administration; cited from earlier work
venous thrombus = test system: venous thrombus; design: method as in PMID 23925504; conditions: mice, cited from earlier work
[3] = design: method as in PMID 33450079; conditions: phase I, approximately 14 days in the fed state in healthy individuals; cited from earlier work
[4] = patients after knee arthroplasty, phase II

For `COc1ccc(-n2nc(C(N)=O)c3c2C(=O)N(c2ccc(N4CCCCC4=O)cc2)CC3)cc1` [apixaban], the bleeding rate [1] is listed as 2.4% and the “major or clinically relevant nonmajor bleeding rate” value (VTE; [4]) is listed as roughly 2%.
In the case of `CC(C)(C)NC(=O)N1CCN(C(=O)N2C(=O)[C@H](CCCN=C(N)N)[C@H]2C(=O)O)CC1` [BMS-262084], the “silk thread-induced thrombus in the inferior vena cava” value [2] is given as “reduced”.
For enoxaparin, the “major or clinically relevant nonmajor bleeding rate” value (VTE; [4]) is listed as roughly 5.9%, the venous thrombus formation (venous thrombus; ferric chloride-induced) is listed as “strongly inhibited” and the bleeding time (venous thrombus; tail cut) is listed as “prolonged”.
For `Nc1ccc(-c2nc([C@H]3CCc4cc(-c5cc(Cl)ccc5-n5cnnn5)cc(=O)n43)c(F)[nH]2)c(F)n1` (stereo in doubt) [ONO-7684], the safety and tolerability [3] is listed as “showed safety and tolerability”.
In the case of “osocimab: human monoclonal anti-FXI antibody”, the “major or clinically relevant nonmajor bleeding rate” value (VTE; human, in vivo) is given as “approximately 4.7%” and the “incidence of VTE at 10 to 13 days” value (VTE; single infusion, compared with enoxaparin, patients after knee arthroplasty) is given as “noninferiority”.
